Test system: phenyl-p-benzoquinone induced writhing in mice
Experiment: mouse antiphenylquinone (phenyl-p-benzoquinone induced) writhing test, oral, 20 min
Protocol: Male CF1 mice obtained from Charles River Breeding Laboratories, fasted for 16-22 hours and weighing 18-22 g at the time of testing are used throughout. All mice are dosed sequentially by the oral route with solutions of flurbiprofen and/or of nalbuphine hydrochloride. A dosing volume of 10 ml/kg is used for each sequential solution or suspension. […] All doses are coded and the test is performed under a code not known to the observer.
A stock solution of flurbiprofen is prepared by dissolving dry flurbiprofen powder with an equimolar amount of one molar sodium hydroxide and sufficient water to produce the required solution concentration. The acidity is adjusted with dilute hydrochloric acid to pH 9.0. All dosing solutions are prepared by dilution of the stock solution with distilled water; the vehicle control is distilled water.
Stock solutions of nalbuphine HCl are prepared by dissolving dry nalbuphine hydrochloride powder with distilled water. All dosing solutions are prepared by dilution of the stock solution with distilled water; the vehicle control is distilled water.
As indicated above, the standard procedure based upon the prevention of phenyl-p-benzoquinone induced writhing in mice is utilized to detect and quantify the analgetic activity of compositions containing nalbuphine and flurbiprofen.
Mice, intubated with various doses of nalbuphine hydrochloride, flurbiprofen, combined doses of nalbuphine hydrochloride and flurbiprofen,or vehicle, are injected intraperitoneally with a challenge dose of phenyl-p-benzoquinone 5 minutes prior to the designated observation period. […] For scoring purposes a "writhe" is indicated by whole body stretching or contraction of the abdomen; mice are observed 10 minutes for the presence or absence of writhing beginning 5 minutes after receiving the phenyl-p-benzoquinone dose. Each mouse is used only once, then discarded. […] This dosage as described herein is referred to as the ED50.
In order to study the interaction between nalbuphine and flurbiprofen, 5 precise dosage ratios of nalbuphine hydrochloride and flurbiprofen are selected. Four or five coded doses of each selected combination are studied for analgesic effectivenss at 20 minutes using an experimental design which permits coding and complete randomization of the separate dosage forms tested. Althogether 35 separate dosage forms are used and each form is represented in each experimental session. The experiments are continued by running experimental sessions with an equal number of mice per group being tested until the total number, N, of mice tested per group is 20. Later, an additional 20 mice/dose are tested and the results are pooled with the original data to yield N=20-40 mice/dose.

Row | SMILES | ED50 at 20 Min. (95% Confidence Limits), Flurbiprofen (flurbiprofen dose (alone or as component of the combination), N = 20-40 mice/dose) | % MICE BLOCKED (nalbuphine HCl 0 + flurbiprofen 0.4 mg/kg) | % MICE BLOCKED (nalbuphine HCl 0 + flurbiprofen 0.8 mg/kg) | % MICE BLOCKED (nalbuphine HCl 0 + flurbiprofen 1.6 mg/kg) | % MICE BLOCKED (nalbuphine HCl 0 + flurbiprofen 3.2 mg/kg) | % MICE BLOCKED (nalbuphine HCl 2.93 + flurbiprofen 0 mg/kg) | % MICE BLOCKED (nalbuphine HCl 5.85 + flurbiprofen 0 mg/kg) | % MICE BLOCKED (nalbuphine HCl 11.7 + flurbiprofen 0 mg/kg) | % MICE BLOCKED (nalbuphine HCl 23.4 + flurbiprofen 0 mg/kg) | % MICE BLOCKED (nalbuphine HCl 46.8 + flurbiprofen 0 mg/kg) | ED50 at 20 Min. (95% Confidence Limits), Nalbuphine HCl (nalbuphine HCl dose (alone or as component of the combination), N = 20-40 mice/dose)
1 | CC(C(=O)O)c1ccc(-c2ccccc2)c(F)c1 (stereo not drawn) [Flurbiprofen Only (0:1), 2-fluoro-α-methyl[1,1'-biphenyl]-4-acetic acid] | 1.56 mg/kg | 5.0% | 32.5% | 45.0% | 87.5% | – | – | – | – | – | –
2 | Oc1ccc2c3c1O[C@H]1[C@@H](O)CC[C@@]4(O)[C@@H](C2)N(CC2CCC2)CC[C@]314 [Nalbuphine Only (1:0), (-)-17-(cyclobutylmethyl)-4,5α-epoxymorphinan-3,6α,14-triol] | – | – | – | – | – | 12.5% | 22.5% | 45.0% | 67.5% | 80.0% | 16.5 mg/kg
